In patent US20090118264A1, “Medicament having neovascularization promoting action” (Research Foundation Itsuu Laboratory, priority 2005, published 2009):
Like-named read-outs stand apart in the source and are kept apart here.

Assays:
[1] = system: mouse lower extremity ischemia model; experiment: Neovascularization experiment using mouse lower extremity ischemia model; type: in vivo, mice (C3H/HeNCrj)
Description: The femoral arteries on one side of 24 to 36-week old wild-type male mice (C3H/HeNCrj) were ligated and separated to prepare lower extremity ischemia model mice. […] The blood flow ratio between the affected extremities and the normal extremities was determined by the laser Doppler method on the day before the operation and 1, 3, 4, 5, 7, 9, 12, 14, 16, 18, 21, 24 and 28 days after the operation. […] In order to detect vascular endothelial cells in muscle tissues of the affected extremities on 21st day after the operation, immunostaining was performed by using anti-CD31 (PECAM1) antibodies.

[2] = system: human umbilical vein endothelial cells and human skin fibroblasts; experiment: Neovascularization in co-culture system of human umbilical vein endothelial cells and human skin fibroblasts (Neovascularization Kit), anti-CD31 immunostaining; type: cell-based
Description: The effect of LE135 on neovascularization was investigated by using a co-culture system of human umbilical vein endothelial cells and human skin fibroblasts (Neovascularization Kit, Kurabo Industries Ltd.). The vascular endothelial growth factor (VEGF) having a potent neovascularization action, added to 8 wells at a final concentration of 10 ng/ml, was used as positive control. Culture medium alone added to 8 wells without addition of the medicament was used as negative control. LE135 was added to the wells (8 wells for each group) at various concentrations, and culture was performed for 11 days. Immunostaining was performed by using anti-CD31 (PECAM1) antibodies directed to the vascular endothelial cells to determine the areas of luminal structures similar to blood vessels showing positive results and the numbers of branchings as an index of maturity of the formed luminal structures. The luminal structure areas and the numbers of branchings observed in the wells added with the medicament (LE135 or VEGF as the positive control) at various concentrations are shown in Table 1 in terms of relative values based on the luminal structure area and the number of branchings observed in the medicament-free wells as the negative control, which were taken as 100, respectively.
The effects of RAR antagonists other than LE135 on neovascularization were examined by using a co-culture system of human umbilical vein endothelial cells and human skin fibroblasts (Neovascularization Kit, Kurabo Industries Ltd.). The vascular endothelial growth factor (VEGF) having a potent neovascularization action added to wells at a final concentration of […] was used as positive control. Culture medium alone added to wells without addition of the medicament was used as negative control. Each compound was added at a concentration of 10^−9 mol/L, and culture was performed for 11 days. Immunostaining was performed by using anti-CD31 (PECAM1) antibodies directed to vascular endothelial cells to determine the areas of luminal structures similar to blood vessels showing positive results and the numbers of branchings as an index of maturity of the formed luminal structures. The luminal structure areas and the numbers of branchings observed in the wells added with the medicament at each given concentration are shown in the following table in terms of relative values based on the luminal structure area and the number of branchings observed in the medicament-free wells as the negative control, which were taken as 100, respectively.

[3] = system: rabbit lower extremity ischemia model; experiment: Intramuscular administration to rabbit lower extremity ischemia model, angiography; type: in vivo, rabbits; settings: 10^−8 M LE135 solution injected into femoral muscles, 3 times per week; 28th day from the ligature; compared with control group (FIG. 2)
Description: The external iliac arteries on one side of rabbits were ligated and separated, and a 10^−8 M LE135 solution was injected into the femoral muscles on the same side to examine the neovascularization effect of the medicament. A solution of an organic solvent alone in the same amount as used for dissolution of LE135 was used as a negative control. The solutions were administered 3 times per week from the next day of the ligature. […] The blood vessels surrounded by the broken lines are considered to be collateral blood routes. In the figure, the white arrows* indicate the common iliac arteries.

[4] = Example 4: each compound 10^−9 mol/L, culture 11 days, relative value, negative control taken as 100, mean ± SD (Table 3)
[5] = LE135 10^−9 M, culture 11 days, relative value, negative control taken as 100, mean ± SD (Table 1)
[6] = LE135 10^−10 M, culture 11 days, relative value, negative control taken as 100, mean ± SD
[7] = LE135 10^−11 M, culture 11 days, relative value, negative control taken as 100, mean ± SD

Compound: CN1c2cc3c(cc2N=C(c2ccc(C(=O)O)cc2)c2ccccc21)C(C)(C)CCC3(C)C [LE135, 4-(5H-7,8,9,10-tetrahydro-5,7,7,10,10-pentamethylbenzo[e]naphtho[2,3-b][1,4]diazepin-13-yl)benzoic acid]
- CD31-positive cell count per field (200×) ([1]; mice orally administered with 5 mg/kg of LE135, muscle tissues of affected extremities, 21st day after the operation): 21.63 ± 4.12 per field (200×)
- Numbers of endothelial cells (CD31-positive cells), in words ([1]; muscle tissues of affected extremities, 21st day after the operation, compared with no medicament-administered group): significantly higher numbers of endothelial cells
- Necrosis or amputation in the lower extremities ([1]; orally 5 mg/kg of LE135, 28th day after the operation, about 30% in no medicament-administered mice): no mouse among the LE135-administered mice was observed to have necrosis or amputation
- Blood flow ratio between affected and normal extremities (laser Doppler method) ([1]; orally 5 mg/kg of LE135, up to 28 days after the operation, compared with no medicament-administered mice (FIG. 1)): Significant improvement of the blood flow
- Area (luminal structure area) [2, 4]: 158.73 ± 6.89
- Number of branchings [2, 4]: 170.09 ± 14.87
- Area (luminal structure area) [2, 5]: 112.52 ± 4.68
- Number of branching [2, 5]: 150.31 ± 10.26
- Area (luminal structure area) [2, 6]: 116.30 ± 5.69
- Number of branching [2, 6]: 137.40 ± 9.48
- Area (luminal structure area) [2, 7]: 109.09 ± 4.89
- Number of branching [2, 7]: 118.70 ± 9.27
- Promotion of neovascularization ([2]; concentrations of 10^−10 and 10^−9 M, versus negative control): significantly promoted neovascularization
- Formation of collateral blood routes (angiography) [3]: evidently better formation of collateral blood routes

Compound: CN1c2cc3c(cc2N=C(c2ccc(C(=O)O)cc2)c2ccc4ccccc4c21)C(C)(C)CCC3(C)C [LE540]
- Blood vessel luminal structure area (in words) ([2]; Example 4: 10^−9 mol/L, versus negative control): significantly increased the blood vessel luminal structure area
- Area (luminal structure area) [2, 4]: 172.02 ± 22.00
- Number of branchings [2, 4]: 195.33 ± 24.49

Compound: VEGF
- Number of branching [2]: 154.20 ± 7.12
- Number of branchings [2]: 321.50 ± 42.17
- Area (luminal structure area) ([2]; Example 4: VEGF final concentration 10 μg/ml, culture 11 days, relative value, negative control taken as 100 (Table 3)): 202.52 ± 18.40
- Area (luminal structure area) ([2]; VEGF final concentration 10 ng/ml, culture 11 days, relative value, negative control taken as 100 (Table 1)): 134.88 ± 4.42
